In patent US8895559B2, “Quinoxalines derivatives and pharmaceutical compositions and kits” (Merck Patent GmbH, priority 2010, dated 2014):
pIC50: −log10 of the molar value.

What follows are compounds tested on PI3K (assay: Cellular testing of PI3K inhibitors: P-S473-PKB Luminex assay in PC3 cells). Settings: PI3K-dependent phosphorylation of PKB at Serin 473 in PC3 cells.
Format: cell-based
Protocol: Description of the Method for the Cellular Testing of PI3K Inhibitors
The cellular assay for determination of the P-S473-PKB level is carried out as a Luminex assay in 96-well format in PC3 cells.
PC3 cells are sown out with 20,000 cells per well in 100 μl medium (45% RPMI1460/45% Ham's F12/10% FCS) and incubated on the following day for 30 min with a serial dilution of the test substance (7 concentrations) under serum-free conditions. […] The lysates are incubated overnight at 4° C. with shaking with Luminex beads to which an anti-total PKB antibody is coupled. The detection is carried out on the following day by addition of a P-S473-PKB antibody and a species-specific PE-labelled secondary antibody. The detection of P-S473-PKB is carried out by measurement in a Luminex 100 instrument by determination of 100 events per cavity in a measurement time of 60 sec. […] The values of the preparations treated with test substance are calculated from this as percent of control, and IC50 values are determined by means of RS1.

SMILES	pIC50
COc1cc(Nc2nc3ccccc3nc2NS(=O)(=O)C2CCS(=O)(=O)C2)c(OCCCO)c(OC)c1 (stereo not shown) [drawing 157]	7.28
COc1cc(Nc2nc3ccccc3nc2NS(=O)(=O)c2ccc(F)cc2)c(OCCOCCO)c(OC)c1 [drawing 159]	8.85
COc1ccc(CCCO)c(Nc2nc3ccccc3nc2NS(=O)(=O)c2cn(C)cn2)c1 [reference compound]	6.43
COc1ccc(CCCO)c(Nc2nc3ccccc3nc2NS(=O)(=O)C2CCS(=O)(=O)C2)c1 (stereo not shown) [reference compound]	6.01
COc1cc(Nc2nc3ccccc3nc2NS(=O)(=O)c2cn(C)c(CN(C)C)n2)c(OCCC(C)O)c(OC)c1 (stereo not shown) [drawing 153]	8.34
COc1ccc(CCCS(C)(=O)=O)c(Nc2nc3ccccc3nc2NS(=O)(=O)c2cn(C)cn2)c1 [reference compound]	5.59
COc1cc(Nc2nc3ccccc3nc2NS(=O)(=O)c2cn(C)cn2)c(OCCCO)c(OC)c1 [drawing 163]	7.02
COc1cc(Nc2nc3ccccc3nc2NS(C)(=O)=O)c(OCCC(C)O)c(OC)c1 (stereo not shown) [drawing 155]	7.42
COc1ccc(CCO)c(Nc2nc3ccccc3nc2NS(=O)(=O)c2ccc(F)cc2)c1 [reference compound]	6.54

Same assay, conditions: PI3 kinase inhibition, cell

SMILES	pIC50
COc1cc(Nc2nc3ccccc3nc2NS(=O)(=O)N(C)C)c(OCCCO)c(OC)c1 [Compound A104]	7.00 to 9.00
COc1cc(Nc2nc3ccccc3nc2NS(=O)(=O)c2cnn(C)c2)c(OCCC(C)O)c(OC)c1 (stereo not shown) [Compound A43]	5.00 to 7.00
COc1cc(Nc2nc3ccccc3nc2NS(=O)(=O)c2ccc(C#N)s2)c(OCCCO)c(OC)c1 [Compound A51]	7.00 to 9.00
COc1cc(Nc2nc3ccccc3nc2NS(=O)(=O)c2ccc(CNC(C)=O)cc2)c(OCCCO)c(OC)c1 [Compound A132, N-(4-{3-[2-(3-hydroxypropoxy)-3,5-dimethoxyphenylamino]quinoxalin-2-ylsulfamoyl}benzyl)acetamide]	7.00 to 9.00
COc1cc(Nc2nc3ccccc3nc2NS(=O)(=O)c2ccc(C#N)s2)c(OCCS(C)(=O)=O)c(OC)c1 [Compound A41]	7.00 to 9.00
COc1cc(Nc2nc3ccccc3nc2NS(=O)(=O)c2cn(C)cn2)c2oc(C(=O)N(C)C)cc2c1 [Compound A9]	5.00 to 7.00
COc1cc(Nc2nc3ccccc3nc2NS(=O)(=O)c2ccn(CCN(C)C)n2)c(OCCC(C)O)c(OC)c1 (stereo not shown) [Compound A129, 1-(2-Dimethylaminoethyl)-1H-pyrazole-3-sulfonic acid {3-[2-(3-hydroxybutoxy)-3,5-dimethoxy-phenylamino]quinoxalin-2-yl} amide]	7.00 to 9.00
COc1cc(Nc2nc3ccccc3nc2NS(=O)(=O)c2cccs2)c(OCCO)c(OC)c1 [Compound A66]	7.00 to 9.00
COc1cc(Nc2nc3ccccc3nc2NS(=O)(=O)c2cn(C)cn2)c(CCCCO)c(OC)c1 [Compound A7]	5.00 to 7.00
COc1cc(Nc2nc3ccccc3nc2NS(=O)(=O)c2ccccc2OC)c(OCCCO)c(OC)c1 [Compound A26]	5.00 to 7.00
COc1cc(Nc2nc3ccccc3nc2NS(=O)(=O)c2ccc(C#N)cc2)c(OCCN(C)CCO)c(OC)c1 [Compound A78]	7.00 to 9.00
COc1cc(Nc2nc3ccccc3nc2NS(=O)(=O)c2cccc(C(=O)NCC(F)(F)F)c2)c(OCCCO)c(OC)c1 [Compound A105]	5.00 to 7.00
COc1cc(Nc2nc3ccccc3nc2NS(=O)(=O)c2ccn(C)n2)c(OCCC(C)(C)O)c(OC)c1 [Compound A125]	7.00 to 9.00
COc1cc(Nc2nc3ccccc3nc2NS(=O)(=O)c2ccc(C#N)cc2)c(OCCN2CCOCC2)c(OC)c1 [Compound A70]	7.00 to 9.00
COc1cc(Nc2nc3ccccc3nc2NS(=O)(=O)c2cn(C)cn2)c2c(c1)OCO2 [Compound A1]	5.00 to 7.00
COc1cc(Nc2nc3ccccc3nc2NS(=O)(=O)c2ccc(C#N)cc2)c(OCC(O)CO)c(OC)c1 (stereo not shown) [Compound A74]	7.00 to 9.00
COc1cc(Nc2nc3ccccc3nc2NS(=O)(=O)c2ccc(C(=O)NCC(F)(F)F)cc2)c(OCCCO)c(OC)c1 [Compound A95]	5.00 to 7.00
COc1cc(Nc2nc3ccccc3nc2NS(=O)(=O)C(F)(F)F)c(OCCOCCO)c(OC)c1 [Compound A49]	7.00 to 9.00
COc1cc(Nc2nc3ccccc3nc2NS(=O)(=O)c2ccn(C)n2)c(CCCCO)c(OC)c1 [Compound A117]	7.00 to 9.00
COc1cc(Nc2nc3ccccc3nc2NS(=O)(=O)c2ccccc2)c(OCCOCCO)c(OC)c1 [Compound A58]	7.00 to 9.00
COc1cc(Nc2nc3ccccc3nc2NS(=O)(=O)C(F)F)c(OCCCO)c(OC)c1 [Compound A114]	5.00 to 7.00
COc1cc(Nc2nc3ccccc3nc2NS(=O)(=O)c2cnn(CCN(C)C)c2)c(OCCCO)c(OC)c1 [Compound A23, 1-(2-Dimethylamino-ethyl)-1H-pyrazole-4-sulfonic acid {3-[2-(3-hydroxypropoxy)-3,5-dimethoxy-phenylamino]quinoxalin-2-yl} amide]	5.00 to 7.00
COc1cc(Nc2nc3ccccc3nc2NS(=O)(=O)c2cn(C)cn2)c(OCCC(C)O)c(OC)c1 (stereo not shown) [Compound A42]	7.00 to 9.00
COc1cc(Nc2nc3ccccc3nc2NS(=O)(=O)c2cccc(CN3CCC3)c2)c(OCCCO)c(OC)c1 [Compound A116, 3-Azetidin-1-ylmethyl-N-{3-[2-(3-hydroxypropoxy)-3,5-dimethoxyphenylamino]-quinoxalin-2-yl}-benzenesulfonamide]	7.00 to 9.00
COc1cc(Nc2nc3ccccc3nc2NS(=O)(=O)c2ccc(C#N)cc2)c(CCCN2CCS(=O)(=O)CC2)c(OC)c1 [Compound A3]	7.00 to 9.00

SMILES	pIC50
COc1cc(Nc2nc3ccccc3nc2NS(=O)(=O)C(F)F)c(OCCC(C)O)c(OC)c1 (stereo not shown) [Compound A115]	7.00 to 9.00
COc1cc(Nc2nc3ccccc3nc2NS(=O)(=O)c2cccc(C#N)c2)c(OCCOCCO)c(OC)c1 [Compound A63]	5.00 to 7.00
COc1cc(Nc2nc3ccccc3nc2NS(=O)(=O)c2ccn(C(F)(F)C(=O)N(C)C)n2)c(OCCC(C)O)c(OC)c1 (stereo not shown) [Compound A118, 2,2-difluoro-2-(3-{3-[2-(3-hydroxybutoxy)-3,5-dimethoxy-phenylamino]-quinoxalin-2-ylsulfamoyl}pyrazol-1-yl)-N,N-dimethylacetamide]	5.00 to 7.00
COc1cc(Nc2nc3ccccc3nc2NS(=O)(=O)c2cccc(CN(C)C)c2)c(OCCCO)c(OC)c1 [Compound A109, 3-Dimethylaminomethyl-N-{3-[2-(3-hydroxy-propoxy)-3,5-dimethoxyphenylamino]quinoxalin-2-yl}benzenesulfonamide]	7.00 to 9.00
COc1cc(Nc2nc3ccccc3nc2NS(=O)(=O)c2ccc(NC(C)=O)cc2)c(OCCOCCO)c(OC)c1 [Compound A62]	5.00 to 7.00
COc1cc(Nc2nc3ccccc3nc2NS(=O)(=O)c2cn(C)cn2)c2occc2c1 [Compound A16, 1-Methyl-1H-imidazole-4-sulfonic acid [3-(5-methoxybenzofuran-7-ylamino)quinoxalin-2-yl]amide]	< 5.00
COc1cc(Nc2nc3ccccc3nc2NS(=O)(=O)c2ccc(C(=O)N3CC(F)(F)C3)cc2)c(OCCCO)c(OC)c1 [Compound A98]	5.00 to 7.00
COc1cc(Nc2nc3ccccc3nc2NS(=O)(=O)c2ccn(C)n2)c(OC)c(OC)c1 [Compound A121]	7.00 to 9.00
COc1cc(Nc2nc3ccccc3nc2NS(=O)(=O)c2cccc(C(=O)N(C)C)c2)c(OCCCO)c(OC)c1 [Compound A97]	5.00 to 7.00
COc1cc(C)c(OC)c(Nc2nc3ccccc3nc2NS(=O)(=O)c2cn(C)cn2)c1 [Compound A11]	5.00 to 7.00
COCCOCCOc1c(Nc2nc3ccccc3nc2NS(=O)(=O)c2ccc(C#N)cc2)cc(OC)cc1OC [Compound A48]	7.00 to 9.00
CCc1cc(OC)cc(Nc2nc3ccccc3nc2NS(=O)(=O)c2ccc(C(=O)N(C)C)cc2)c1OC [Compound A18]	< 5.00
COc1cc(Nc2nc3ccccc3nc2NS(=O)(=O)c2ccc(C(=O)N(C)C)cc2)c(OCCOCCO)c(OC)c1 [Compound A69]	5.00 to 7.00
COCCOCCOc1c(Nc2nc3ccccc3nc2NS(=O)(=O)c2cn(C)cn2)cc(OC)cc1OC [Compound A47]	7.00 to 9.00
COc1cc(Nc2nc3ccccc3nc2NS(=O)(=O)c2ccn(CCN(C)C)n2)c(OCCCO)c(OC)c1 [Compound A130, 1-(2-Dimethylaminoethyl)-1H-pyrazole-3-sulfonic acid {3-[2-(3-hydroxypropoxy)-3,5-dimethoxy-phenylamino]quinoxalin-2-yl} amide]	7.00 to 9.00
COc1cc(Nc2nc3ccccc3nc2NS(=O)(=O)c2ccc(C(=O)NCC(F)F)cc2)c(OCCCO)c(OC)c1 [Compound A93]	5.00 to 7.00
COc1cc(Nc2nc3ccccc3nc2NS(C)(=O)=O)c(OCCCO)c(OC)c1 [Compound A25]	5.00 to 7.00
COc1cc(Nc2nc3ccccc3nc2NS(=O)(=O)c2cn(C)cn2)c(OCCOCCO)c(OC)c1 [Compound A81]	5.00 to 7.00
COc1cc(Nc2nc3ccccc3nc2NS(=O)(=O)c2ccc(F)c(F)c2)c(OCCCO)c(OC)c1 [Compound A71]	7.00 to 9.00
COc1cc(Nc2nc3ccccc3nc2NS(=O)(=O)c2cccc(C(=O)N3CCC3)c2)c(OCCCO)c(OC)c1 [Compound A108]	5.00 to 7.00
COc1cc(Nc2nc3ccccc3nc2NS(=O)(=O)c2cccnc2)c(OCCOCCO)c(OC)c1 [Compound A65]	5.00 to 7.00
COc1cc(Nc2nc3ccccc3nc2NS(=O)(=O)c2cccs2)c(OCCN(C)CCO)c(OC)c1 [Compound A60]	7.00 to 9.00
COc1cc(Nc2nc3ccccc3nc2NS(=O)(=O)c2ccc(C#N)s2)c(OCCOCCO)c(OC)c1 [Compound A59]	7.00 to 9.00
CCc1cc(OC)cc(Nc2nc3ccccc3nc2NS(=O)(=O)c2cn(C)cn2)c1OC [Compound A17]	< 5.00
